Assay results from PMC7217877, “N-AS-triggered SPMs are direct regulators of microglia in a model of Alzheimer’s disease” (Nature Communications, 2020).
Values joined by “and” are separate entries in the source; they are usually repeats but may differ in a detail not shown here. Identical values can stand only once.

Columns and labels:
[1] = system: immortalized human microglia; experiment: ac-S565 COX2 in human microglia (western blot, immunofluorescence, Supplementary Fig 6b,c); type: cell-based; parameters: ac-S565 COX2 (western blot): scale not given here; conditions: for ac-S565 COX2 (western blot): sFig 6b
Description: To confirm the generation and roles of N-AS in neurons, cells from E18 C57BL/6 mice were prepared as previously described. Cortices were dissected and then dissociated followed by incubation in papain (Worthington) at 37 °C for 15 min. Neurons were plated on poly-L-lysine-coated coverslips with neuronal culture medium, serum-free Neurobasal medium (Gibco) containing 2% B27 supplements (Gibco), 1 mM Glutamax supplement (Gibco), and 100 U ml^−1 streptomycin/ 100 U ml^−1 penicillin (Gibco) at 37 °C in a humidified atmosphere of 5% CO2. Aβ 1–42 (10 μM, 24 h, Invitrogen, 03112) was exposed to neurons and the cells were analyzed for the generation and roles of N-AS. Primary astrocyte cultures were prepared from C57BL/6 mice as described previously. In brief, after removal of the meninges, postnatal day 7 (P7) mouse brain tissues were minced and incubated in a rocking water bath at 37 °C for 30 min in the presence of 0.25% trypsin-EDTA (Sigma-Aldrich). Enzyme-digested dissociated cells were triturated with astrocyte-specific medium (DMEM/F12 containing 10% FBS and 1% penicillin-streptomycin) and centrifuged at 155×g for 8 min. The pellet was resuspended in astrocyte-specific medium and passed through a 40-μm cell strainer. The filtrate was allowed pre-adherence for 30 min to remove any contamination from fibroblasts before being seeded in dishes and the addition of astrocyte-specific medium. To split the cells, Ara-C was added to the dishes and they were then placed in a heated shaker for 6–7 h. The medium was removed from the dishes, and trypsin-EDTA was added to the dish and incubated at 37 °C for 5–10 min. After centrifugation at 155×g for 8 min, the supernatant was removed, and the astrocytes were maintained in culture by feeding […] with astrocyte-specific medium. Primary microglia cultures were prepared from C57BL/6 mice as described previously. In brief, the cortices of 2-months-old mice were minced in Hibernate A (Gibco)/B27 supplements (Gibco) medium and dissociated using papain (Worthington) solution. After tissue trituration, cells were separated by Optiprep (Sigma-Aldrich) density gradient centrifugation. Microglia were plated with microglia-specific medium (DMEM/F12 containing 10% FBS and 1% penicillin-streptomycin). The immortalized human microglia (Applied Biologics Materials, T0251) were cultured in PriGrow III (Applied Biologics Materials, TM003) (supplemented with 10% FBS and 1% penicillin-streptomycin) at 37 °C in a humidified atmosphere of 5% CO2. […] The human microglia treated with Aβ 1–42 and/or zileuton was incubated with N-AS (2.5 μM, 2 h, Sigma-Aldrich, 01912), and were analyzed for the generation and roles of N-AS.
Thioflavin S (Sigma-Aldrich) staining was carried out according to previously described procedures. We used 6E10 (mouse, 1:100, Signet, SIG39300), anti-20G10 (mouse, 1:1000, provided by D. R. Howlett, GlaxoSmithKline, Harlow, Essex, UK) for Aβ42, anti-G30 (rabbit, 1:1000, provided by D. R. Howlett) for Aβ40, SMA (mouse, 1:400, Sigma-Aldrich, A2547), AT8 (mouse, 1:500, Thermo Fisher Scientific, MN1020), Caspase-3 (mouse, 1:200, Novus Biologicals, NB100-56708), ac-S565 (rabbit, 1:100), COX2 (mouse, 1:250, Thermo Fisher Scientific, 35-8200), Iba1 (rabbit, 1:500, Wako, 019-19941 and goat, Abcam, ab5076), NeuN (mouse, 1:500, Millipore, MAB177), GFAP (rabbit, 1:500, Dako, N1506 and chicken, 1:500, Abcam, ab4674), and Lamp1 (mouse, 1:200, Abcam, ab24170). The sections were analyzed with a laser-scanning confocal microscope (FV3000; Olympus) or with a BX51 microscope (Olympus). MetaMorph software (Molecular Devices) was used to quantification. Three-dimensional reconstruction of microglia was recorded and analyzed using IMARIS software (Bitplane)[11]. […]

[2] = biological target: T1, COX2 N181A (Homo sapiens, UniProt P35354, N181A); experiment: filter binding assay of [14C] N-AS to COX2; conditions: 0.2 uM, replicates
T1 construct: His (N); made in house
T1 sequence (P35354 18-604 N181A): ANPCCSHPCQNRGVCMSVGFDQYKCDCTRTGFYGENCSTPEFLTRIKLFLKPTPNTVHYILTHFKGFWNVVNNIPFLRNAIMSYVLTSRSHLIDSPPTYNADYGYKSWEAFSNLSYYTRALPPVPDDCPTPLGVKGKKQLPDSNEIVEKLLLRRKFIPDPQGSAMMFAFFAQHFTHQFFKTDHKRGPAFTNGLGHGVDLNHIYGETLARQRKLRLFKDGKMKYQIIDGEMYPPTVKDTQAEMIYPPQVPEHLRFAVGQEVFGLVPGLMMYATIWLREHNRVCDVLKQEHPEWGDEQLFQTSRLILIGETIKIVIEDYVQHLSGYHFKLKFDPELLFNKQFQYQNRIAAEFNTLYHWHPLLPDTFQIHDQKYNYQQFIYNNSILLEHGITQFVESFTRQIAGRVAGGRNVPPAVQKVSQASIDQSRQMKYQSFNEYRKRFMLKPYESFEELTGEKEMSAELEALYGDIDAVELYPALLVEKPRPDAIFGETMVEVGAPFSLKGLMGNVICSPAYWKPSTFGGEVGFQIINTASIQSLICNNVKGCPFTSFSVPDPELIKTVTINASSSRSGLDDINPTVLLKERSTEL

Compound	ac-S565 COX2 (western blot) ([1]; human microglia, Ab 50mM +)	binding velocity (Vbinding) [2]	S565 acetylation of COX2, in words ([1]; Aβ-affected human microglia + N-AS)	ac-S565 COX2 (immunofluorescence) ([1]; human microglia, Ab 50mM +, sFig 6c)	ac-S565 COX2 (western blot) ([1]; human microglia, Ab 50mM -)
CC(=O)SCCNC(=O)CCNC(=O)[C@H](O)C(C)(C)COP(=O)(O)OP(=O)(O)OC[C@H]1O[C@@H](n2cnc3c(N)ncnc32)[C@H](O)[C@@H]1OP(=O)(O)O [Acetyl-CoA, acetyl-CoA]	1.441 and 1.037 and 1.136 and 1.4813 and 1.401 and 1.309				
CCCCCCCCCCCCC/C=C/[C@@H](O)[C@H](CO)NC(C)=O [N-AS, N-((2S,3R,E)-1,3-Dihydroxyoctadec-4-en-2-yl)acetamide]	1.839 and 1.211 and 1.367 and 1.737 and 1.941 and 1.552	0.489 nM/min and 0.461 nM/min and 0.240 nM/min	restored	2.003 and 2.188 and 1.708 and 1.496 and 1.357 and 1.768	1.105 and 1.597 and 1.621 and 1.1016 and 1.489 and 0.9364
